Test results as given in ChEMBL document CHEMBL6103650, “Hybrid Molecules of Benzothiazole and Hydroxamic Acid as Dual-Acting Biofilm Inhibitors with Antibacterial Synergistic Effect against Pseudomonas aeruginosa Infections” (J Med Chem, 2025).
Active and inactive are the calls of the source. The calls are words filed in the database; no cut-off is given here.

Assays:
[1] = test system: Pseudomonas aeruginosa; test: Antibiofilm activity against Pseudomonas aeruginosa PAO1 assessed as reduction in pFe(III) content incubated for 24 hrs; assay type: functional
[2] = test system: Pseudomonas aeruginosa; test: Anti-motility activity against Pseudomonas aeruginosa PAO1 assessed as reduction in swimming motility at 10 uM incubated for 24 hrs relative to control; assay type: functional; parameters: scale not given: the % may be the effect or the level left
[3] = test system: Pseudomonas aeruginosa; test: Antibiofilm activity against Pseudomonas aeruginosa PAO1 harboring pvds-deficient mutant assessed as inhibition of biofilm formation at 0.3125 to 10 uM incubated for 24 hrs by crystal violet staining based analysis; assay type: functional, organism-based; conditions: dose 0.3125-10 µM
[4] = test system: Pseudomonas aeruginosa; test: Antibacterial activity against Pseudomonas aeruginosa PAO1 assessed as inhibition of bacterial growth incubated for 24 hrs by serial dilution method; assay type: functional
[5] = test system: Pseudomonas aeruginosa; test: Antibiofilm activity against Pseudomonas aeruginosa PAO1 assessed as decrease in colony forming counts incubated for 24 hrs by crystal violet staining based analysis; assay type: functional, organism-based; conditions: dose 0.15625-2.5 µM
[6] = test system: Pseudomonas aeruginosa; test: Antibiofilm activity against Pseudomonas aeruginosa PA1167 assessed as inhibition of biofilm formation incubated for 24 hrs by crystal violet staining based analysis; assay type: functional, organism-based
[7] = test system: Pseudomonas aeruginosa; test: Antibiofilm activity against Pseudomonas aeruginosa PAO1 assessed as fold increase in pyochelin level at 10 uM incubated for 2 hrs by fluorescence based analysis; assay type: functional
[8] = test system: Pseudomonas aeruginosa; test: Antibiofilm activity against Pseudomonas aeruginosa PAO1 assessed as increase in pyoverdine level incubated for 2 hrs by fluorescence based analysis; assay type: functional, organism-based; conditions: dose 0.3125-10 µM
[9] = Inhibition of quorum sensing system in Pseudomonas aeruginosa PAO1-pqsa-gfp assessed as reduction in fluorescence intensity at 0.3125 to 10 uM measured upto 16 hrs by GFP reporter strain assay; conditions: dose 0.3125-10 µM
[10] = test system: Pseudomonas aeruginosa; test: Antibacterial activity against Pseudomonas aeruginosa PAO1 infected in BALB/c mouse wound infection model measured after 3 days; assay type: functional, organism-based; conditions: time 3.0 day
[11] = test system: Pseudomonas aeruginosa; test: Antivirulence activity in Pseudomonas aeruginosa PAO1 assessed as reduction in extracellular polysaccharides production at 10 uM incubated for 24 hrs relative to control; assay type: functional; parameters: scale not given: the % may be the effect or the level left
[12] = test system: Pseudomonas aeruginosa; test: Antibiofilm activity against Pseudomonas aeruginosa PAO1 assessed as reduction in iron content at 10 uM incubated for 24 hrs by cell total iron colorimetric assay relative to control; assay type: functional; parameters: scale not given: the % may be the effect or the level left
[13] = test system: Pseudomonas aeruginosa; test: Antibiofilm activity against Pseudomonas aeruginosa PAO1 assessed as inhibition of biofilm formation incubated for 24 hrs by crystal violet staining based analysis; assay type: functional, organism-based
[14] = Toxicity in BALB/c mouse wound infection model assessed as liver damage measured for 9 days by H and E staining based analysis; assay type: tissue-based; conditions: in vivo, 216 h, time 9 day
[15] = test system: Pseudomonas aeruginosa; test: Antivirulence activity in Pseudomonas aeruginosa PAO1 assessed as reduction in elastase production at 10 uM incubated for 24 hrs relative to control; assay type: functional; parameters: scale not given: the % may be the effect or the level left
[16] = test system: Pseudomonas aeruginosa; test: Synergistic […] activity against Pseudomonas aeruginosa PAO1 assessed as fractional inhibitory concentration index measured for 20 hrs in presence of ciprofloxacin by microdilution checkboard assay; assay type: functional
[17] = test system: Pseudomonas aeruginosa; test: Antibiofilm activity against Pseudomonas aeruginosa PAO1 assessed as reduction in pFe(III) content incubated for 24 hrs by cell total iron colorimetric assay; assay type: functional, organism-based; conditions: dose 0.3125-10 µM
[18] = test system: Pseudomonas aeruginosa; test: Anti-motility activity against Pseudomonas aeruginosa PAO1 assessed as reduction in swarming motility incubated for 24 hrs; assay type: functional, organism-based; conditions: dose 0.3125-10 µM
[19] = Toxicity in BALB/c mouse assessed as kidney damage by H and E staining based analysis; conditions: in vivo
[20] = Toxicity in BALB/c mouse wound infection model assessed as spleen damage measured for 9 days by H and E staining based analysis; assay type: tissue-based; conditions: in vivo, 216 h, time 9 day
[21] = test system: Pseudomonas aeruginosa; test: Synergistic […] activity against Pseudomonas aeruginosa PAO1 assessed as fractional inhibitory concentration index measured for 20 hrs in presence of tobramycin by microdilution checkboard assay; assay type: functional
[22] = test system: Pseudomonas aeruginosa; test: Antibiofilm activity against Pseudomonas aeruginosa PA1121 assessed as inhibition of biofilm formation incubated for 24 hrs by crystal violet staining based analysis; assay type: functional, organism-based
[23] = test system: Pseudomonas aeruginosa; test: Anti-motility activity against Pseudomonas aeruginosa PAO1 assessed as reduction in swarming motility at 10 uM incubated for 24 hrs relative to control; assay type: functional; parameters: scale not given: the % may be the effect or the level left
[24] = Toxicity in BALB/c mouse assessed as heart damage by H and E staining based analysis; assay type: tissue-based; conditions: in vivo
[25] = Inhibition of quorum sensing system in Pseudomonas aeruginosa PAO1-lasB-gfp assessed as reduction in fluorescence intensity at 0.3125 to 10 uM measured upto 16 hrs by GFP reporter strain assay; conditions: dose 0.3125-10 µM
[26] = Toxicity in BALB/c mouse wound infection model assessed as lung damage measured for 9 days by H and E staining based analysis; assay type: tissue-based; conditions: in vivo, 216 h, time 9 day
[27] = test system: Pseudomonas aeruginosa; test: Antibiofilm activity against Pseudomonas aeruginosa PAO1 assessed as decrease in biofilm formation incubated for 24 hrs by crystal violet staining based analysis; assay type: functional, organism-based; conditions: dose 0.3125-10 µM
[28] = test system: Pseudomonas aeruginosa; test: Antibiofilm activity against Pseudomonas aeruginosa PA1129 assessed as inhibition of biofilm formation incubated for 24 hrs by crystal violet staining based analysis; assay type: functional, organism-based
[29] = Toxicity in BALB/c mouse assessed as spleen damage by H and E staining based analysis; assay type: tissue-based; conditions: in vivo
[30] = test system: Pseudomonas aeruginosa; test: Antibiofilm activity against Pseudomonas aeruginosa PAO1 overexpressing fpvA assessed as inhibition of biofilm formation at 0.3125 to 10 uM incubated for 24 hrs by crystal violet staining based analysis; assay type: functional, organism-based; conditions: dose 0.3125-10 µM
[31] = Hemolytic activity in rabbit red blood cells at < 40 uM; assay type: toxicity, cell-based, Oryctolagus cuniculus; conditions: erythrocyte
[32] = test system: Pseudomonas aeruginosa; test: Antibiofilm activity against Pseudomonas aeruginosa PA14 assessed as inhibition of biofilm formation incubated for 24 hrs by crystal violet staining based analysis; assay type: functional, organism-based; conditions: PA14, 24 h
[33] = test system: Pseudomonas aeruginosa; test: Antibacterial activity against Pseudomonas aeruginosa PAO1 infected in BALB/c mouse wound infection model assessed as bacterial survival rate in wound at 2.5 uM administered to wound once a day for 3 days in dropwise manner in presence of ciprofloxacin; assay type: functional; conditions: PAO1, 72 h, time 3 day
[34] = Toxicity in BALB/c mouse assessed as change in body weight; conditions: in vivo
[35] = test system: Pseudomonas aeruginosa; test: Antibiofilm activity against Pseudomonas aeruginosa PAO1 assessed as inhibition of biofilm formation at 0.15625 uM incubated for 24 hrs by crystal violet staining based analysis relative to control; assay type: functional
[36] = Toxicity in zebrafish assessed as survival rate at <100 uM measured upto 120 hrs; parameters: species or system Danio rerio; conditions: in vivo
[37] = test system: Pseudomonas aeruginosa; test: Antibacterial activity against Pseudomonas aeruginosa PAO1 infected in BALB/c mouse wound infection model assessed as reduction in wound area at 2.5 uM administered to wound once a day for 3 days and measured after 9 days in dropwise manner in presence of ciprofloxacin; assay type: functional; parameters: scale not given: the % may be the effect or the level left; conditions: time 12 day
[38] = test system: Pseudomonas aeruginosa; test: Antibacterial activity against Pseudomonas aeruginosa PAO1 infected in BALB/c mouse wound infection model assessed as reduction in wound area at 2.5 uM administered to wound once a day for 3 days and measured after 9 days in dropwise manner in presence of Tob; assay type: functional; parameters: scale not given: the % may be the effect or the level left; conditions: time 12 day
[39] = test system: Pseudomonas aeruginosa; test: Anti-motility activity against Pseudomonas aeruginosa PAO1 assessed as reduction in swimming motility incubated for 24 hrs; assay type: functional, organism-based; conditions: dose 0.3125-10 µM
[40] = test system: Pseudomonas aeruginosa; test: Antibiofilm activity against Pseudomonas aeruginosa PAO1 assessed as increase in pyochelin level incubated for 2 hrs by fluorescence based analysis; assay type: functional, organism-based; conditions: dose 0.3125-10 µM
[41] = test system: Pseudomonas aeruginosa; test: Antibiofilm activity against Pseudomonas aeruginosa PAO1 assessed as inhibition of biofilm formation at 0.15625 to 2.5 uM incubated for 24 hrs by crystal violet staining based analysis; assay type: functional, organism-based; conditions: dose 0.15625-2.5 µM
[42] = Hemolytic activity in mouse red blood cells at < 40 uM; assay type: toxicity, cell-based; conditions: erythrocyte
[43] = test system: RAW264.7; test: Cytotoxicity against mouse RAW264.7 cells assessed as reduction in cell viability at < 100 uM incubated for 24 hrs by MTT assay; assay type: toxicity, cell-based; conditions: raw264.7, 24 h

COc1ccc2nc(NCC(=O)NCCCCC(=O)NO)sc2c1
Activity [1]: 19.61 | Activity [2]: 64% | Activity [3]: No effect | MIC [4]: > 256 µM | Activity [5]: Dose-dependent-effect | Activity [6]: Active | fold change (FC) [7]: 1.7 | Activity [8]: Dose-dependent-effect | inhibition [9]: Active | Activity [10]: No effect | Activity [11]: 58% | Activity [12]: 57% | Activity [13]: Dose-dependent-effect | IC50 ([13]; PAO1, 24 h): 400 nM | Activity [14]: Non-toxic | Activity [15]: 43% | fractional inhibitory concentration index (FICI) [16]: 0.25 | Activity [17]: Dose-dependent-effect | Activity [18]: Dose-dependent-effect | Activity [19]: Non-toxic | Activity [20]: Non-toxic | fractional inhibitory concentration index (FICI) [21]: 0.29 | Activity [22]: Active | Activity [23]: 84% | Activity [24]: Non-toxic | inhibition [25]: Active | Activity [26]: Non-toxic | Activity [27]: Dose-dependent-effect | Activity [28]: Active | Activity [29]: Non-toxic | Activity [30]: No effect | Activity [31]: Non-toxic | IC50 [32]: 1450 nM | survival at 2.5 µM [33]: 0.45% | Activity [34]: Non-toxic | inhibition at 0.1562 µM [35]: 40% | Activity [36]: Non-toxic | Activity [37]: 38% | Activity [38]: 35% | Activity [39]: Dose-dependent-effect | Activity [40]: Dose-dependent-effect | Activity [41]: inactive | Activity [42]: Non-toxic | Activity [43]: Non-toxic
